Results on one compound are retold here after patent US9212359B2, “Systems for induction of gene expression and protein depletion in yeast” (priority 2011, dated 2015).

In this test the test system is GEV. Kind of test: β-Galactosidase activity assay, PGAL1-lacZ reporter plasmid pCM64-GAL1 in DBY12100. It counts as cell-based, S. cerevisiae. Conditions: 2 hours incubation, 1 μM or 10 μM DOC. The protocol: Assays were performed essentially as described in (Liu et al., 1999) with minor modifications. 5 mL of cells transformed with pCM64-GAL1 were grown to midlog phase in SC-URA medium at 30° C., then incubated at indicated temperatures for the indicated times with or without (a) 5 μL of ethanol (vehicle control), (b) 2 μL of 2.5 mM β-estradiol (Sigma) dissolved in ethanol (final concentration of 1 μM), (c) 5 μL of 1 mM DOC (deoxycorticosterone; Sigma) dissolved in ethanol (final concentration of 1 μM), or (d) 5 μL of 10 mM DOC dissolved in ethanol (final concentration of 10 μM). Cells (1 mL) were harvested by centrifugation, washed once with sterile H2O, and resuspended in 700 μl of Z buffer (100 mM sodium phosphate, pH 7.0, 10 mM KCl, 1 mM MgSO4, 50 mM β-mercaptoethanol). 50 μl of chloroform and 50 μl of 0.1% SDS were added, and the cell suspension was vortex-mixed at top speed for 30 seconds followed by addition of 200 μl of 4 mg/ml ONPG (ortho-nitrophenyl-β-galactoside; Sigma) was added to each sample and incubated at room temperature until pale yellow color appeared. […] After clarification by centrifugation, the supernatant was diluted, and A420 was measured within the linear response range. Specific β-galactosidase activity was calculated as follows: (A420×1000)/(A600×(volume of cells examined in ml)×(time of incubation in minutes)) and reported in Miller units. […]

As to `C[C@]12CC[C@H]3[C@@H](CCC4=CC(=O)CC[C@@]43C)[C@@H]1CC[C@@H]2C(=O)CO` [deoxycorticosterone], the “induction of GEV (lacZ activity)” value is on record as “not induced”.
